The record followed here is patent publication US9051351B2, “Hepatocyte growth factor mimics as therapeutic agents” (Washington State University, priority 2011, dated 2015).

SMILES strings stand for the structures. “Also recorded” adds a separate entry of the source. Structures can show the parent of a compound that is named as a salt. Where two headings read alike, the source gives them in different places. Where a SMILES comes first, the peptide text is derived from it. [ ]: non-standard residue; d: D form. dNle = CCCC[C@@H](N)C(=O)O; Nle = CCCC[C@H](N)C(=O)O; GABA = NCCCC(=O)O

In one series the test system is scopolamine treated rats. Put plainly: Morris water maze, scopolamine amnesia model. Conditions: for mean latency to find the pedestal: icv, Dihexa, Hinge 300 pmol, scopolamine 70 nmol. The class given is in vivo, rat. The protocol:
Swim speed was determined from these values.

Series [1] can be described thus: Serum metabolism of peptides in rat serum. The format is in vitro ADME. The following applies: for half-life at 500 µg/mL: male, Sprague Dawley, rat, serum. As to the method: Four month old male Sprague Dawley rats were used as the blood source for the metabolism studies. Blood was collected from left/right jugular veins of the rats using sterile catheters. After a 30 minute incubation on ice, the blood was centrifuged at 1000 rpm for 15 min to separate the serum. Serum was then transferred to clean tubes and stored at −20° C. until use.
Except for dihexa all drug solutions were prepared in HPLC grade water at 5 mg/ml. Stock drugs were kept in powder form and stored at −20° C. Serum metabolism experimental procedure and analysis. Rat blood serum samples were pre-equilibrated at 37° C. and then 10 μL (50 μg) of each drug solution was added to 90 μL of rat serum in 1.5 mL Eppendorf tube maintained at 37° C. At specified time intervals, metabolism was terminated by precipitating proteins with the addition of 1 ml of a solution of acetonitrile (ACN) and acetic acid (9:1, v/v). The terminated reaction mixture was stored in refrigerator (5° C.) overnight and centrifuged (14,000 rpm) for 30 min to remove precipitated proteins. The separated supernatant was dried in vacuum concentrator. The dried samples were reconstituted using 200 μL HPLC mobile phase (10% v/v ACN in water), vortexed briefly, and subjected to HPLC separation and analysis. A serum blank experiment to detect any interfering peaks in the HPLC chromatogram was performed by in an identical manner except that no drug was added. Zero time values for each drug candidate were established by first treating the serum with ACN, processing the sample as described above, adding drug, and then performing HPLC analysis.
The degradation rate of drug was determined by measuring the decrease in area under curve (AUC) at the retention time of drug over time. The AUC obtained from the zero time experiment was considered to represent the “100%” drug concentration and was used to determine the decreased drug concentration at each specified time interval. The semi-logarithmic plot of drug concentration vs. time was generated to determine degradation kinetic constant (k) of the tested drug. The half-life of drug was (t1/2) was calculated by 0.693/k.
Analysis of samples was performed using an HPLC system. The system consisted of a communications bus module, pumps, and a photodiode array detector. Separation was achieved using a C18 (250 mm×4.6 mm id., 5 μm particle size) reverse phase column. The column temperature was set at 40° C. The mobile phase consisted of a mixture of ACN and water with 0.1% TFA and was degassed by ultrasonication. Samples were introduced by manual mode with an injection volume of 250 μL. The drug was eluted with a flow rate of 1 mL/min and detected by PDA detector at […] wavelengths of 215 and 280 nm.

The test system of a further series is hippocampal neurons. Nature of the series: Dendritic spine counts (spinogenesis) in mRFP-β-actin transfected dissociated hippocampal neurons. The class given is cell-based, rat. The following applies: dose-response; 10^-8 and 10^-10 M. As to the method: Hippocampal neurons (2×10^5 cells per square cm) were cultured from P1 Sprague Dawley rats on plates coated with poly-L-lysine from Sigma (St. Louis, Mo.; molecular weight 300,000). […] Each experiment was repeated at least three times using independent culture preparations. […] Hippocampal neurons (2×10^5 cells per square centimeter) were cultured from P1-2 Sprague Dawley rats on plates coated with poly-L-lysine from Sigma (St. Louis, Mo.; molecular weight 300,000). Hippocampal neurons were maintained in Neurobasal A media from Invitrogen (Carlsbad, Calif.) supplemented with B27 from Invitrogen, 0.5 mM L-glutamine, and […] cytosine-D-arabinofuranoside from Sigma added at 2 days in vitro. Hippocampal neurons were then cultured a further 3-7 days, at which time they were either transfected or treated with various pharmacological reagents as described in the text or figure legends. Neurons were transfected with mRFP-β-actin on day in vitro 6 […] using LipofectAMINETM 2000 (Invitrogen) according to the manufacturer's protocol. […] On DIV7 the cells were treated with vehicle (H20) or peptides (as described in the text) added to media. […] Five 50 μm long segments of dendrite from at least 10 neurons per data point were analyzed for each data point reported. Each experiment was repeated at least three times using independent culture preparations. […] A target sequence for c-Met was designed using RNAi central design program (see the website located at […].edu/). The target sequence […] NO: 2) was inserted into pSUPER vector (Oligoengine, Seattle Wash.) which drives endogenous production of shRNA under the H1 promoter. The shRNA was transfected into cells using the lipofectamine method described above. Verification of receptor knockdown was done by creating a c-[…]-Myc tagged gene product using the Gateway cloning system (Invitrogen). The Met protein coding sequence was cloned from rat whole brain cDNA using primers obtained from Integrated DNA Technologies, Inc. The amplified product was gel purified and a band corresponding to 190 kDa band excised and cloned into a […] destination vector (Gateway). Hippocampal neurons (2×10^5 cells per square cm) were cultured from P1 Sprague Dawley rats on plates coated with poly-L-lysine from Sigma (St. Louis, Mo.; molecular weight […]).

The mark [2] stands for this setting: rat serum, 37° C., Mean +/− SD, N = 3, read-out: Half-Life (min), serum stability.

With `CN1[C@@H]2C[C@@H](OC(=O)[C@H](CO)c3ccccc3)C[C@H]1[C@@H]1O[C@@H]12` [scopolamine, Scopolamine hydrobromide, reference compound], the figures for the “mean latency to find the pedestal” value in the series on scopolamine treated rats (day one of training), in the series on scopolamine treated rats (final day of training (day 8)) and in the series with scopolamine treated rats (fourth day of training) were 114.7 s, 84.8 s and 102.4 s, respectively.
`CCCC[C@H](NC(C)=O)C(=O)N[C@@H](Cc1ccc(O)cc1)C(=O)N[C@H](C(=O)N[C@@H](Cc1c[nH]cn1)C(=O)O)[C@@H](C)CC` [N-acetyl-Nle-Tyr-Ile-His] (Ac-[Nle]YIH-OH): the half-life at 500 µg/mL in series [1] (setting [2]) worked out at 115 min.
As for `CCCC[C@H](N)C(=O)N[C@@H](Cc1ccc(O)cc1)C(=O)N[C@H](C(=O)N[C@@H](Cc1cnc[nH]1)C(=O)N1CCC[C@H]1C(=O)N[C@@H](Cc1ccccc1)C(=O)O)[C@@H](C)CC` [Nle1-AngIV, Norleucine-YIHPF, reference compound] (H-[Nle]YIHPF-OH), the half-life at 500 µg/mL in series [1] (setting [2]) came out at 1.42 min; in series [1] (read-out: t1/2 in rat serum), 1.4 min. Besides, the “Half-Life (min), serum stability” value in series [1] (rat serum, 37° C., Mean +/− SD, N = 3) is given as “less than two minutes”.
With `CC[C@H](C)[C@H](NC(=O)[C@H](Cc1ccc(O)cc1)NC(=O)CCCN)C(=O)O` [GABA-Tyr-Ile] (H-[GABA]-Tyr-Ile-OH; N-terminus and C-terminus assumed), the “time spent in the target quadrant, day 9 probe trial” value is listed as “different than all the other treated groups” in the series on scopolamine treated rats (scopolamine icv 70 nmol, analog icv 1 nmol) and “superior to all the other compound treated groups” in the series with scopolamine treated rats (scopolamine icv 70 nmol, analog icv 1 nmol, listed as GABA-Tyr). Moreover, in the series on scopolamine treated rats (scopolamine icv 70 nmol, analog icv 1 nmol, 8 days), the “latency to find the submerged platform in the Morris water maze” value is “exhibited the best performance among the compound treated groups; also recorded: not significantly different than the vehicle control group”. Moreover, in series [1] (setting [2]), the half-life at 500 µg/mL worked out at 946 min. In the series on hippocampal neurons, the “spine numbers, stabilized AngIV analogs (FIG. 31)” value is given as “did not appear to be the most potent generator of new dendritic spines”.
For the compound `CCCC[C@@H](N)C(=O)N[C@@H](Cc1ccc(O)cc1)C(=O)N[C@H](C(=O)O)[C@@H](C)CC` [D-Nle-Tyr-Ile] (H-[dNle]-Tyr-Ile-OH), the half-life at 500 µg/mL in series [1] (setting [2]) amounted to 225 min.
The same measure, in the same setting: the same measure for `CCCC[C@H](N)C(=O)N[C@@H](Cc1ccc(O)cc1)C(=O)N[C@H](C(=O)N[C@@H](Cc1c[nH]cn1)C(N)=O)[C@@H](C)CC` [Nle-Tyr-Ile-His-NH2] (H-[Nle]YIH-NH2): 23 min.
